Patent publication US11835503B2, “TMA-formation inhibitor treatment for elevated TMA-containing compound diseases” (The Cleveland Clinic Foundation, priority 2009, dated 2023)

Legend:
intestinal microflora [1] = test: D3-carnitine gavage in mice, plasma D3-TMA and D3-TMANO by stable isotope dilution LC/MS/MS; format: in vivo; settings: gavage at t=0, plasma
Source text: In additional work, mice were gavaged with D3-carnitine and the time dependent appearance of D3-TMA and TMANO were quantified in plasma. Where indicated in FIG. 8, mice were pretreated for 3 weeks with a broad spectrum antibiotic cocktail to suppress intestinal microflora. […] Plasma levels of the deuterium (D3) labeled metabolites of D3-carnitine, D3-TMA and D3-TMANO, were quantified in plasma by stable isotope dilution LC/MS/MS analysis. D3-Carnitine was given by gavage feeding to mice at t=0. Results are shown in FIG. 8, with TMA production shown in FIG. 8B and TMANO production in FIG. 8C.

intestinal microflora [2] = test: D3-carnitine gavage in mice, plasma D3-crotonobetaine and D3-gamma-butyrobetaine by LC/MS/MS; format: in vivo
Source text: In further work, mice were gavaged with D3-carnitine and the time dependent appearance of D3-crotonobetaine and gamma butyrobetaine were quantified in plasma. Where indicated in FIG. 9, mice were pretreated for 3 weeks with a broad spectrum antibiotic cocktail to suppress intestinal microflora. […] D3-crotonobetaine and D3-gamma-butyrobetaine were quantified in plasma by LC/MS/MS analysis isolated at the indicated times following D3-carnitine gavage feeding. Results are shown in FIG. 9, with crotonbetaine production shown in FIG. 9A, and gamma-butyrobetain production shown in FIG. 9B.

intestinal flora = test: oral d9-(trimethyl)-PC challenge in subjects, time course of plasma d9-TMA by LC/MS/MS; format: in vivo, humans; settings: human subjects, 250 mg oral
Method: TMA is detected in plasma. While TMA is a gas at room and body temperature, if one acidifies the plasma, and the sample flash frozen and analyzed immediately upon thaw, one can measure the TMA cation by mass spectrometry.
Subjects were given 250 mg of d9-(trimethyl)-PC, and then time course of d9-TMA in plasma quantified. […] Plasma TMA was quantified by LC/MS/MS of samples immediately after blood draw, acidification of the plasma with 10 mM HCl to lower TMA vapor pressure, and snap freezing in liquid nitrogen and storage at −80 C until time of analysis.

Compound	metabolites of D3-carnitine appearing in plasma (D3-TMA, D3-TMANO) (intestinal microflora [1])	metabolites of D3-carnitine appearing in plasma (D3-crotonobetaine, D3-gamma-butyrobetaine) (intestinal microflora [2])	time at which plasma d9-TMA levels increased after the PC challenge (intestinal flora)
[2H]C([2H])([2H])[N+](C)(C)CC(O)CC(=O)[O-] (stereo not drawn) [D3-carnitine]	both TMA and TMANO are generated as a metabolite of carnitine ingestion	both compounds are generated as a metabolite of carnitine ingestion	
d9-(trimethyl)-PC			4 to 8 h
